Experimental data published in patent US20080255217A1, “PREVENTIVE OR THERAPEUTIC AGENT FOR CARDIAC DYSFUNCTION OR MYOCARDIAL INJURY CAUSED BY ISCHEMIA OR ISCHEMIA REPERFUSION” (SANWA KAGAKU KENKYUSHO CO., LTD., priority 2005, published 2008).

What was measured:
aldose reductase = aldose reductase (Homo sapiens, UniProt P15121); experiment: Aldose reductase inhibitory activity; format: biochemical; conditions: background statement
[1] = system: hearts of wild-type mice (BDF-1); experiment: Isolated heart (Langendorff) ischemia-reperfusion, wild-type mice; parameters: species or system mouse; conditions: for deterioration of the cardiac performance and destruction of cardiac muscle due to an ischemia reperfusion injury in a heart: discussion summary of wild-type and hAR-TG results; for increase of left ventricular end-diastolic pressure (LVEDP) after ischemia reperfusion: 1 μM in perfusion solution, FIG. 2; for release of CK from cardiomyocytes: 60-min reperfusion, FIG. 4
Method: (§1) In an experimental test, hearts of 7 to 9 week-old wild-type mice (BDF-1) and hAR-TG were used. From these mice, hearts were isolated under anesthesia of pentobarbital 50 mg/kg i.p., and were placed in ice-cold saline. The isolated hearts were perfused for 20 minutes at a perfusion pressure of 70 mmHg with the Langendorff apparatus (Model IH-1 Type 844, HUGO SACHS ELEKTRONIK, Germany), and was stabilized. Thereafter, after perfusion for 30 minutes under heart function measurement, perfusion solution was completely stopped for 30 minutes, and reperfusion was performed for further 60 minutes, thereby, ischemia-ischemia reperfusion loading was performed. As perfusion solution, Krebs-Henseleit (KH) buffer containing 5.55 mM glucose and 2 mM Na-pyruvate was used. Cardiac performance was assessed by a left ventricular end-diastolic pressure (LVEDP) and peak first derivative of left ventricular systolic pressure (+dP/dt max). These were measured with a pressure transducer connected with a balloon inserted into a left ventricle in condition of hearts paced at 3 volt, 420 beats/min with an electrode placed on the top of a right ventricle, and data thereof were calculated with a four cannel recording device (OMUNIACE RT-3300, NEC, Japan). An AR inhibitor was added to the perfusion solution for 10 minutes from 15 minutes before global ischemia initiation as shown in FIG. 1. Each inhibitor (1 μM SNK-860: SNK, 1-10 μM zopolrestat: ZOP, 10 μM epalrestat: EPA) was dissolved in DMSO, and a DMSO final concentration in a perfusion solution was adjusted to 0.05%. DMSO of the same concentration was also added to a perfusion solution of a control experiment. Cardiomyocytes injury was determined using as an index the release of total creatinine kinase (CK) for 60-min reperfusion, and a myocardial ATP content after 60 minutes reperfusion was determined by the bioluminescence method (Sigma-Aldrich, St. Louis, Mo.) using luciferase, respectively.

[2] = system: hearts of human aldose reductase (AR) transgenic mice (hAR-TG); experiment: Isolated heart (Langendorff) ischemia-reperfusion, hAR-TG mice; parameters: species or system mouse; conditions: for increase in LVEDP: FIG. 5; for reduction in +dP/dt max: FIG. 6; for release of CK into a perfusion solution: FIG. 7; for decrease in a myocardial ATP content: after 60 minutes reperfusion, FIG. 8
From the text: In the present invention, not only wild-type mice, but also human aldose reductase (AR) transgenic mice (hAR-TG) which was produced so as to overexpress human-type AR genetically in a mouse, were used for predicting effectiveness in humans which is significant for the development of such a therapeutic agent. As a control for comparison with SNK-860, epalrestat and zopolrestat were used.
as §1
For hAR-TG mice, littermates (LM: hAR non-expression litter mouse) were used as control mice without drug treatment.

[3] = system: diabetic cardiomyopathy patients; conditions: Johnson B F: Diabetes Care 27,448, 2004; cited from earlier work
[4] = drug development ceased; cited from earlier work
[5] = wild-type mice, isolated heart, 1 μM

| SMILES | aldose reductase inhibitory activity (aldose reductase) | deterioration of the cardiac performance and destruction of cardiac muscle due to an ischemia reperfusion injury in a heart ([1]; lower concentration, non-diabetic state) | increase of left ventricular end-diastolic pressure (LVEDP) after ischemia reperfusion ([1]; wild-type mice, isolated heart) | reduction in peak first derivative of left ventricular systolic pressure (+dP/dt max) immediately after reperfusion ([1]; wild-type mice, isolated heart, 1 μM, FIG. 3) | release of CK from cardiomyocytes [1, 5] | increase in LVEDP ([2]; 1 μM) | reduction in +dP/dt max ([2]; 1 μM) | release of CK into a perfusion solution ([2]; 1 μM) | decrease in a myocardial ATP content ([2]; 1 μM) | cardiac performance of diabetic cardiomyopathy patients [3] | manifestation of side effects [4] | deterioration of the cardiac performance and destruction of cardiac muscle due to an ischemia reperfusion injury in a heart ([1]; high concentration) | increase in LVEDP ([2]; 10 μM) | reduction in +dP/dt max ([2]; 10 μM) | release of CK into a perfusion solution ([2]; 10 μM) | decrease in a myocardial ATP content ([2]; 10 μM) |
| --- | --- | --- | --- | --- | --- | --- | --- | --- | --- | --- | --- | --- | --- | --- | --- | --- |
| NC(=O)[C@@H]1C[C@]2(NC(=O)NC2=O)c2cc(F)ccc2O1 [SNK-860, (2S,4S)-6-fluoro-2′,5′-dioxospiro[chroman-4,4′-imidazolidine]-2-carboxamide] | strong aldose reductase inhibitory activity | completely inhibited | significantly improved | the most remarkable effect | significant reduction | significant improvement | significant improvement | equivalent improvement effect to that of the 10 μM epalrestat-addition group | equivalent improvement effect to that of the 10 μM epalrestat-addition group | – | – | – | – | – | – | – |
| O=C(O)Cc1nn(Cc2nc3cc(C(F)(F)F)ccc3s2)c(=O)c2ccccc12 [zopolrestat] | – | – | significantly improved | – | no effect | – | – | – | – | improves the cardiac performance | hepatic disorders | only the partial effect | significant improvement | significant improvement | significant improvement was not observed | significant improvement was not observed |
